Like-named read-outs stand apart in the source and are kept apart here.
What was measured:
[1] = Cell viability (PrestoBlue) of miPSC-derived cardiomyocytes; format: cell-based, murine; details: mouse, αPIG-AT25 miPSC-derived cardiomyocytes (puromycin-selected), 10 μM, 72 h of exposure
Experimental: (§1) The differentiation of transgenic mPSCs was initiated in mass cultures as briefly described below. One million cells were transferred per non-adhering 10 cm dish with 14 ml differentiation medium composed of Iscove's Modified Dulbecco's Medium (IMDM) with GlutaMAX (Life Technologies) supplemented with 20% FBS, 1×NEAA and 100 μM β-ME. Embryoid bodies (EBs) from day 2 of differentiation were transferred in a 250 ml spinner flask (CELLSPIN 250, Integra Biosciences, Fernwald, Germany) with a density of 3×10^4 EBs per 200 ml of differentiation medium. On the first 2 days of differentiation medium was supplemented with 50 μg/ml L-ascorbic acid phosphate (AA, Wako pure chemicals industry, Japan) in order to promote the development of cardiac cells. For the selection of GFP-expressing CMs, 50 ml of the medium was exchanged with fresh differentiation medium and 8 μg/ml puromycin (Life Technologies) were supplemented on day 9 of differentiation. Two days later, the cardiac clusters were transferred on non-adhering 10 cm dishes with fresh differentiation medium containing 8 μg/ml puromycin. In the further course of differentiation medium was exchanged every 2-3 days. If not otherwise specified, the purification of GFP-positive CMs with puromycin was continued until day 16 of differentiation. For single cell analyses and transfer of PSC-derived CMs on cell culture plates, cardiac clusters were dissociated with 0.25% trypsin-EDTA (Life Technologies) supplemented with 50 U/ml DNase I (AppliChem, Darmstadt, Germany) for 20-30 min at 37° C. The mPSC-derived CMs were filtered through a polyamide membrane with […] pore size (Sefar, Heiden, Switzerland). Cell numbers were determined with a Neubauer hemocytometer and cells were stored on ice until further use.
(§2) Serial dilutions of DMSO stock solutions of PluriSIn #1 (Sigma-Aldrich, catalog number SML0682) or one of small molecules SM1-SM10, were prepared from 20 mM stock solutions with cell culture medium. Murine PSCs were dissociated with 0.05% trypsin-EDTA, seeded on 0.1% gelatin-coated 96-well plates with a density of 5000 cells/well and cultured in maintenance medium supplemented with 1000 U/ml of mLIF. After 1 day, cells were incubated with 40 μM PluriSIn #1 and derivatives for 72 h or with 0.01-25 μM SMs for 48 h, respectively. For treatment of corresponding PSC-derived CMs with SMs, puromycin-selected miPSC-CMs from day 14 of differentiation were dissociated with 0.25% trypsin-EDTA as described above and plated on 96-well plates (5×10^4 cells/well) which were pre-coated with 5 μg/ml fibronectin (PromoCell, Heidelberg, Germany). After culturing miPSC-CMs with 8 μg/ml puromycin for 2 more days, they were incubated in differentiation medium supplemented with 0.1-100 μM of SMs for 48-72 h. Following small molecule treatment, cell viability was determined with PrestoBlue cell viability reagent (Life Technologies). To this end, cells were washed with PBS (with calcium and magnesium, Life Technologies) and incubated with PrestoBlue reagent diluted in cell culture medium for 40 min at 37° C.
(§3) Fluorescence intensities correlating with the number of viable cells in the wells were measured in black flat-bottom 96-well plates (Greiner Bio-One, Kremsmünster, Austria) with a GeniosPro microplate reader (Tecan, Männedorf, Schweiz).
(§4) The selectivity of compounds was investigated by comparing their cytotoxicity against undifferentiated iPSCs and iPSC-derived CMs. Murine iPSCs αPIG-AT25 were incubated for 48 h with compounds SM1, SM2, SM4, SM5, SM6 and SM8 in concentrations of 0.01 to 10 μM. Cell culture and cardiac differentiation were performed as described above. Experiments were run at least in quadruplicate. The cell viability was determined using PrestoBlue cell viability reagent.
(§5) The viability of salicylic diamine-treated CMs was confirmed by 72 h of exposure to concentrations of 0.01 μM, 0.1 μM, 1 μM, 10 μM and 25 μM of compounds SM1, SM2, SM4, SM5, SM6 and SM8.

murine and human PSCs = assay: Dose response assays, statements over murine and human PSCs; format: cell-based; details: for IC50: iPSC, 48 h, read-out: IC50 values, range over murine iPSC line, two murine ESC lines and human iPSC line
Experimental: as §2, §3
IC50 values were determined by regression analysis of dose-response curves upon logarithmic transformation. Microscopic images of PSCs were taken with a Zeiss Axiovert 100 inverted microscope and GFP images of CMs were captured with a Zeiss Axiovert 200M fluorescence microscope (both Carl Zeiss, Oberkochen, Germany) and analyzed with Zeiss Axiovision 4.5 software (Carl Zeiss).
In order to quantify compound cytotoxicity, dose response assays were performed by treating PSCs with compound concentrations between nontoxic 0.01 μM and PSC-eliminating 10 μM for 48 h. Murine iPSCs αPIG-AT25, embryonic stem cell lines αPIG44-D3 and R1, and human induced pluripotent stem cell (hiPSC) line NP0014-C6 were used. Cell culture and dose response assays were performed as described above.

[2] = tested on: αPIG-AT25 miPSC-derived cardiomyocytes; assay: Cell viability (PrestoBlue) of miPSC-derived cardiomyocytes; format: cell-based, murine; details: 48 h treatment
miPSC-CM monolayers = assay: Cardiomyocyte contraction rate by video imaging; format: cell-based, murine; details: 10 μM, 48 h treatment
Experimental: The effect of compound treatment on CM beating frequency was determined by video imaging of iPSC-CM monolayers after exposure to SMs. On day 14 of differentiation puromycin-selected miPSC-CMs were plated on a fibronectin-coated multi-well cell culture plate (10^5 cells/cm^2). […] Following SM treatment, cells were washed twice with PBS (with calcium and magnesium) and cultured for 72 h in fresh differentiation medium. […] The number of beats per each video sequence was quantified and the contraction rate was calculated in beats per minute.
Further, the effect of compound treatment on the CM beating frequency was determined by video imaging of iPSC-CM monolayers after exposure to compounds as described above.

[3] = tested on: αPIG-AT25 miPSC-derived cardiomyocytes; assay: Cell viability (PrestoBlue) of miPSC-derived cardiomyocytes; format: cell-based, murine
Experimental: as §1, §2, §3, §4, §5

[4] = read-out: decrease of cardiomyocyte viability, in average over SM1, SM4 and SM8
[5] = read-out: decrease of cardiomyocyte viability

Oc1c(CNC2CCCC[C@@H]2NCc2cccc(-c3ccccc3)c2O)cccc1-c1ccccc1 (stereo partly drawn) [SM1, (1S,2S)-N,N′-di[(2-hydroxy-3-phenyl)-benzyl]-1,2-diaminocyclo-hexane]
cytotoxicity at 72 h, 10 μM [1, 4]: 79.8 ± 14.7%
IC50 (murine and human PSCs): 100 to 5000 nM

Oc1c(/C=N/[C@H]2CCCC[C@@H]2NCc2cccc(-c3ccccc3)c2O)cccc1-c1ccccc1 [SM2, (1S,2S)-N-[(2-hydroxy-3-phenyl)-benzyl]-N′-[(2-hydroxy-3-phenyl)-benzylidene]-1,2-diaminocyclohexane]
microscopic analysis of CM monolayers [2]: intact CM monolayers
decrease of contraction rate of CMs compared to DMSO-treated control (miPSC-CM monolayers): 61.02±2.67%
cytotoxicity at 72 h, 10 μM [1, 5]: 18.5 ± 7.06%
IC50 (murine and human PSCs): 100 to 5000 nM

Oc1c(CN[C@@H]2CCCC[C@H]2NCc2cccc(-c3ccccc3)c2O)cccc1-c1ccccc1 [SM4, (1R,2R)-N,N′-di[(2-hydroxy-3-phenyl)-benzyl]-1,2-diaminocyclohexane]
cytotoxicity at 72 h, 10 μM [1, 4]: 79.8 ± 14.7%
IC50 (murine and human PSCs): 100 to 5000 nM

Oc1c(/C=N/[C@@H]2CCCC[C@H]2NCc2cccc(-c3ccccc3)c2O)cccc1-c1ccccc1 [SM5, (1R,2R)-N-[(2-hydroxy-3-phenyl)-benzyl]-N′-[(2-hydroxy-3-phenyl)-benzylidene]-1,2-diaminocyclohexane]
cytotoxicity at 72 h, 10 μM [1, 5]: 14.1 ± 13.8%
IC50 (murine and human PSCs): 100 to 5000 nM

Oc1ccccc1CN[C@@H]1CCCC[C@H]1NCc1ccccc1O [SM6, (1R,2R)-N,N′-di(2-hydroxybenzyl)-1,2-diaminocyclohexane]
microscopic analysis of CM monolayers [2]: intact CM monolayers
decrease of contraction rate of CMs compared to DMSO-treated control (miPSC-CM monolayers): 24.26±15.71%
cytotoxicity at 72 h, 10 μM [1, 5]: 11 ± 13.2%
effect on the viability of cardiomyocytes ([3]; 10 μM, two day-treatment): no significant effect
toxicity to differentiated cardiomyocytes ([3]; summary in description): not toxic
effect on pluripotent stem cells (murine and human PSCs; 10 μM, two day-treatment): elimination of pluripotent stem cells
IC50 (murine and human PSCs): 100 to 5000 nM

Oc1c(CNC2CCCC[C@@H]2NCc2cccc(-c3ccccc3)c2O)cccc1-c1ccccc1 (stereo partly drawn) [SM8, (1S,2R)-N,N′-di[(2-hydroxy-3-phenyl)-benzyl]-1,2-diaminocyclohexane]
microscopic analysis of CM monolayers [2]: intact CM monolayers
decrease of contraction rate of CMs compared to DMSO-treated control (miPSC-CM monolayers): 71.37±26.91%
decrease of cardiomyocyte viability, in average over SM1, SM4 and SM8 ([3]; 10 μM, 72 h of exposure): 79.79±14.72%
